A value given as a limit tells only on which side of the number the result lay.

c-MET, sequence (P08581 25-1390): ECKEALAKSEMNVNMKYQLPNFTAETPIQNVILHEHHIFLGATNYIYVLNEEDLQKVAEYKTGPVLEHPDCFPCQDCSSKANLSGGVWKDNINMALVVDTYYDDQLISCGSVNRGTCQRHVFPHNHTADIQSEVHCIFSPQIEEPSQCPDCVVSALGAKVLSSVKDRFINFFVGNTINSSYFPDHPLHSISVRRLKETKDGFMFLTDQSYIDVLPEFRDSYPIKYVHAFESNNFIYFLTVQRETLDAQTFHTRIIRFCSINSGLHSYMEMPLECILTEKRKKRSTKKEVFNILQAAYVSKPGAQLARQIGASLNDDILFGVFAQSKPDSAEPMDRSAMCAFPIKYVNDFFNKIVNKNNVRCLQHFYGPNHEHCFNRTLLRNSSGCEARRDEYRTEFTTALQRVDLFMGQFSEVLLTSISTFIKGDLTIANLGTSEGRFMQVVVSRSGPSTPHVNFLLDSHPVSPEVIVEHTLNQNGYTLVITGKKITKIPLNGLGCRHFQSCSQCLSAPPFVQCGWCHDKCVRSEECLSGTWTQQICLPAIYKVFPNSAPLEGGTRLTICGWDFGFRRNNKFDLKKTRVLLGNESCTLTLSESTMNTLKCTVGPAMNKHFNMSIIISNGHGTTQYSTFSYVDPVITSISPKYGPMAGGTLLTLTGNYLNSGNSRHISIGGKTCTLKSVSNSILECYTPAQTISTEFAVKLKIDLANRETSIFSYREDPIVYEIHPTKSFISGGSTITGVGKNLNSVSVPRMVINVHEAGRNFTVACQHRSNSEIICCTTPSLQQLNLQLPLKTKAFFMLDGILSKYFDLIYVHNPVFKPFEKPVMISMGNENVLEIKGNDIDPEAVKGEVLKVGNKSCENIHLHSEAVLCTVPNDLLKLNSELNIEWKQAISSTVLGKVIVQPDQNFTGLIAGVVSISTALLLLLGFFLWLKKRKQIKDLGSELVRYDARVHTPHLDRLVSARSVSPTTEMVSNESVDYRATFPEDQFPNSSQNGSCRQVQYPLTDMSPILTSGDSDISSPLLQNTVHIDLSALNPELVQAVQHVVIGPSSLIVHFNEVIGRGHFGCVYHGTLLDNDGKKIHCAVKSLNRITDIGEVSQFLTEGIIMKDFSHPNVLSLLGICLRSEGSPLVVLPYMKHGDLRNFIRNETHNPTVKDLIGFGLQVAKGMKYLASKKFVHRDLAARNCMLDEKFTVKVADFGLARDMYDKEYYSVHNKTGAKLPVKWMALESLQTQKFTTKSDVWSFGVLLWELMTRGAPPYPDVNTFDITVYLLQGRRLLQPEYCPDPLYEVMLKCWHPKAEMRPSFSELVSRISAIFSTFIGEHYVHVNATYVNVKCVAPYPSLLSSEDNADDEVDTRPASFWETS

The assay has as its target c-MET (Homo sapiens, UniProt P08581). The assay is described as follows: Ki determination for the inhibition of c-MET (standard radiometric 33P-ATP kinase assay, polyE4Y substrate). In kind it is biochemical. The following applies: 1.0 nM c-Met, 35 μM ATP, 0.5 mg/mL polyE4Y, 20 min; competitive tight-binding fit. An outline of the steps:
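Radiometric assay of 33P transfer from 33P-ATP (35 μM) to polyE4Y (0.5 mg/mL) by 1.0 nM c-Met in 100 mM HEPES pH 7.5, 10 mM MgCl2, 25 mM NaCl, 0.01% BSA, 1 mM DTT. TCA-quenched after 20 min, filter-captured, scintillation-counted; Ki fitted to a competitive tight-binding model.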
With `CN1CCC[C@H]1C(=O)N1CC=C(c2cnc(N)c(-c3nnnn3-c3cccc(F)c3F)c2)CC1` [I-A-503], the Ki (usually a measure of affinity in units of concentration, obtained from inhibition or displacement) was at most 0.1 µM. Next, `Nc1ncc(C2=CCN(C(=O)[C@@H]3CCCN3)CC2)cc1-c1nnnn1-c1cccc(F)c1F` [I-A-504]: at most 0.1 µM; `Nc1ncc(C2=CCN(C(=O)C[C@@H]3CCCN3)CC2)cc1-c1nnnn1-c1cccc(F)c1F` [I-A-505]: at most 0.1 µM. The figure for `CC(C)(C)OC(=O)N1CC=C(c2cnc(N)c(-c3nnnn3-c3cccc(F)c3F)c2)CC1` [I-A-506] is at most 0.1 µM; for `Nc1ncc(C2=CCN(C(=O)c3cccnc3)CC2)cc1-c1nnnn1-c1cccc(F)c1F` [I-A-507] it is at most 0.1 µM; for `CC(C)OC(=O)N1CC=C(c2cnc(N)c(-c3nnnn3-c3cccc(F)c3F)c2)CC1` [I-A-508] it is at most 0.1 µM. The figure for `Nc1ncc(-c2ccc3c(c2)CCNC3)cc1-c1nnnn1-c1cccc(F)c1F` [I-A-509] is 0.1 to 1 µM; for `CC(=O)N1CC=C(c2cnc(N)c(-c3nnnn3-c3cccc(F)c3F)c2)CC1` [I-A-510] it is at most 0.1 µM; for `CCC(=O)N1CC=C(c2cnc(N)c(-c3nnnn3-c3cccc(F)c3F)c2)CC1` [I-A-511] it is at most 0.1 µM.

`CC(C)C(=O)N1CC=C(c2cnc(N)c(-c3nnnn3-c3cccc(F)c3F)c2)CC1` [I-A-512]: the Ki is at most 0.1 µM. The figure for `CC(C)CC(=O)N1CC=C(c2cnc(N)c(-c3nnnn3-c3cccc(F)c3F)c2)CC1` [I-A-513] is at most 0.1 µM; for `COCCC(=O)N1CC=C(c2cnc(N)c(-c3nnnn3-c3cccc(F)c3F)c2)CC1` [I-A-514] it is at most 0.1 µM; for `CC1(C)CC(C(=O)N2CC=C(c3cnc(N)c(-c4nnnn4-c4cccc(F)c4F)c3)CC2)CCO1` (stereo not shown) [I-A-515] it is at most 0.1 µM. The compound `Nc1ncc(C2=CCN(C(=O)CC3CCOCC3)CC2)cc1-c1nnnn1-c1cccc(F)c1F` [I-A-516] registered a Ki of at most 0.1 µM. The figure for `C[C@@H](C(=O)N1CC=C(c2cnc(N)c(-c3nnnn3-c3cccc(F)c3F)c2)CC1)N1CCCC1=O` [I-A-517] is 0.1 to 1 µM.

For `Nc1ncc(C2=CCN(C(=O)c3ccncc3)CC2)cc1-c1nnnn1-c1cccc(F)c1F` [I-A-518], the Ki was at most 0.1 µM. Next, `CCCN1CCc2cc(-c3cnc(N)c(-c4nnnn4-c4cccc(F)c4F)c3)sc2CC1` [I-A-519]: at most 0.1 µM; `Nc1ncc(C2=CCN(C(=O)OC3CCOC3)CC2)cc1-c1nnnn1-c1cccc(F)c1F` (stereo not shown) [I-A-520]: at most 0.1 µM. Next, `Nc1ncc(C2=CCN(C(=O)C3CCOCC3)CC2)cc1-c1nnnn1-c1cccc(F)c1F` [I-A-521]: at most 0.1 µM; `Nc1ncc(C2=CCN(C(=O)C3CCCOC3)CC2)cc1-c1nnnn1-c1cccc(F)c1F` (stereo not shown) [I-A-522]: at most 0.1 µM; `Nc1ncc(C2=CCN(C(=O)C3CC3)CC2)cc1-c1nnnn1-c1cccc(F)c1F` [I-A-523]: at most 0.1 µM. Next, `Nc1ncc(C2=CCN(C(=O)CC3CC3)CC2)cc1-c1nnnn1-c1cccc(F)c1F` [I-A-524]: at most 0.1 µM; `Nc1ncc(C2=CCNCC2)cc1-c1nnnn1-c1cccc(F)c1F` [I-A-525]: 0.1 to 1 µM.

For the compound `Nc1ncc(C2=CCN(C(=O)O[C@H]3CCOC3)CC2)cc1-c1nnnn1-c1cccc(F)c1F` [I-A-526], the Ki is at most 0.1 µM. Next, `Nc1ncc(C2=CCN(C(=O)[C@@H]3CCOC3)CC2)cc1-c1nnnn1-c1cccc(F)c1F` [I-A-527]: at most 0.1 µM; `Nc1ncc(-c2cnn(C3CC4CCC(C3)N4)c2)cc1-c1nnnn1-c1cccc(Cl)c1F` (stereo not shown) [I-A-528]: at most 0.1 µM. In turn, `Nc1ncc(-c2ccc(C3CCNCC3)s2)cc1-c1nnnn1-c1cccc(Cl)c1F` [I-A-532] displayed a Ki of at most 0.1 µM. The figure for `Nc1ncc(-c2nc3c(s2)CNCC3)cc1-c1nnnn1-c1cccc(Cl)c1F` [I-A-533] is 0.1 to 1 µM; for `Nc1ncc(-c2ccn(C3CCNCC3)c2)nc1-c1nnnn1-c1cccc(F)c1F` [I-A-534] it is at most 0.1 µM.

The compound `Nc1ncc(-c2cnn([C@H]3CCNC3)c2)nc1-c1nnnn1-c1cccc(F)c1F` [I-A-536] had a Ki of at most 0.1 µM. Next, `Nc1ncc(-c2nc3c(s2)CNCC3)nc1-c1nnnn1-c1cccc(F)c1F` [I-A-537]: 0.1 to 1 µM; `Nc1ncc(-c2cnn([C@@H]3CCNC3)c2)cc1-c1nnnn1-c1cccc(Cl)c1F` [I-A-538]: at most 0.1 µM. As for `Nc1ncc(-c2nccs2)cc1-c1nnnn1-c1cccc(F)c1F` [I-A-539], the Ki is 0.1 to 1 µM. The figure for `Nc1ncc(-c2cncs2)cc1-c1nnnn1-c1cccc(F)c1F` [I-A-540] is at most 0.1 µM; for `Nc1ncc(-c2cscn2)nc1-c1nnnn1-c1ccccc1F` [I-A-541] it is 0.1 to 1 µM; for `Nc1ncc(-c2cc3c(s2)CNCC3)nc1-c1nnnn1-c1cccc(Cl)c1F` [I-A-542] it is at most 0.1 µM.

`Cc1c(Cl)cccc1-n1nnnc1-c1cc(-c2cccnc2)cnc1N` [I-A-551] gave a Ki of 0.1 to 1 µM.

Consider `Nc1ncc(-c2cccnc2)cc1-c1nnnn1-c1cc(Cl)ccc1F` [I-A-554], for which the Ki is 0.1 to 1 µM.

`Nc1ncc(-c2cccnc2)cc1-c1nnnn1-c1cccc(Cl)c1F` [I-A-557] showed a Ki of 0.1 to 1 µM.

Compound `COc1c(F)cccc1-n1nnnc1-c1cc(-c2cccnc2)cnc1N` [I-A-561] returned a Ki of 0.1 to 1 µM. For the compound `COc1c(F)cccc1-n1nnnc1-c1cc(-c2cccc(NC(C)=O)c2)cnc1N` [I-A-562], the Ki was in the range of 0.1 to 1 µM. The figure for `CC(=O)Nc1cccc(-c2cnc(N)c(-c3nnnn3-c3cccc(F)c3C)c2)c1` [I-A-564] is 0.1 to 1 µM; for `CC(=O)Nc1cccc(-c2cnc(N)c(-c3nnnn3-c3cccc(Cl)c3C)c2)c1` [I-A-565] it is 0.1 to 1 µM; for `CC(=O)Nc1cccc(-c2cnc(N)c(-c3nnnn3-c3cc(F)ccc3F)c2)c1` [I-A-567] it is 0.1 to 1 µM. The figure for `CC(=O)Nc1cccc(-c2cnc(N)c(-c3nnnn3-c3cc(Cl)ccc3F)c2)c1` [I-A-568] is 0.1 to 1 µM. The figure for `CC(=O)Nc1cccc(-c2cnc(N)c(-c3nnnn3-c3cc(F)ccc3Cl)c2)c1` [I-A-569] is 0.1 to 1 µM; for `CC(=O)Nc1cccc(-c2cnc(N)c(-c3nnnn3-c3cc(F)cc(F)c3Cl)c2)c1` [I-A-570] it is 0.1 to 1 µM; for `CC(=O)Nc1ccc(-c2cnc(N)c(-c3nnnn3-c3cccc(F)c3C)c2)cc1` [I-A-574] it is 0.1 to 1 µM. Compound `CC(=O)Nc1ccc(-c2cnc(N)c(-c3nnnn3-c3cccc(Cl)c3C)c2)cc1` [I-A-575] returned a Ki of 0.1 to 1 µM.

As for `CC(=O)Nc1ccc(-c2cnc(N)c(-c3nnnn3-c3cc(Cl)ccc3C)c2)cc1` [I-A-576], the Ki is 0.1 to 1 µM. The figure for `Cc1c(F)cccc1-n1nnnc1-c1cc(-c2ccc(CN(C)C)cc2)cnc1N` [I-A-577] is 0.1 to 1 µM; for `Cc1c(Cl)cccc1-n1nnnc1-c1cc(-c2ccc(CN(C)C)cc2)cnc1N` [I-A-578] it is 0.1 to 1 µM. The compound `Cc1ccc(Cl)cc1-n1nnnc1-c1cc(-c2ccc(CN(C)C)cc2)cnc1N` [I-A-579] returned a Ki of 0.1 to 1 µM. The figure for `CN(C)Cc1ccc(-c2cnc(N)c(-c3nnnn3-c3cc(F)ccc3F)c2)cc1` [I-A-580] is 0.1 to 1 µM; for `CC(=O)Nc1ccc(-c2cnc(N)c(-c3nnnn3-c3cc(F)ccc3F)c2)cc1` [I-A-581] it is 0.1 to 1 µM; for `CC(=O)Nc1ccc(-c2cnc(N)c(-c3nnnn3-c3cc(Cl)ccc3F)c2)cc1` [I-A-582] it is 0.1 to 1 µM. Take `CC(=O)Nc1ccc(-c2cnc(N)c(-c3nnnn3-c3cc(F)cc(F)c3Cl)c2)cc1` [I-A-583]: the Ki lay in the range of 0.1 to 1 µM. Turning to `CC(=O)Nc1ccc(-c2cnc(N)c(-c3nnnn3-c3cccc(Cl)c3F)c2)cc1` [I-A-584], the Ki is at most 0.1 µM. Turning to `COc1ccc(F)cc1-n1nnnc1-c1cc(-c2ccc(NC(C)=O)cc2)cnc1N` [I-A-585], the Ki was 0.1 to 1 µM.

With `CC(=O)Nc1ccc(-c2cnc(N)c(-c3nnnn3-c3cc(Cl)cc(Cl)c3)c2)cc1` [I-A-587], the Ki was in the range of 0.1 to 1 µM. Next, `COc1c(F)cccc1-n1nnnc1-c1cc(-c2ccc(NC(C)=O)cc2)cnc1N` [I-A-588]: 0.1 to 1 µM; `COc1c(F)cccc1-n1nnnc1-c1cc(-c2ccc(CN(C)C)cc2)cnc1N` [I-A-589]: at most 0.1 µM; `CN(C)Cc1ccc(-c2cnc(N)c(-c3nnnn3-c3cc(Cl)cc(Cl)c3)c2)cc1` [I-A-590]: 0.1 to 1 µM. Regarding `CN(C)Cc1ccc(-c2cnc(N)c(-c3nnnn3-c3cc(F)cc(F)c3)c2)cc1` [I-A-591], the Ki is 0.1 to 1 µM. Next, `CN(C)Cc1ccc(-c2cnc(N)c(-c3nnnn3-c3cc(F)ccc3Cl)c2)cc1` [I-A-592]: 0.1 to 1 µM; `CN(C)Cc1ccc(-c2cnc(N)c(-c3nnnn3-c3cc(Cl)ccc3F)c2)cc1` [I-A-593]: 0.1 to 1 µM; `Nc1ncc(-c2ccc(CN3CCCC3)cc2)cc1-c1nnnn1-c1cc(F)ccc1F` [I-A-594]: 0.1 to 1 µM. With `Nc1ncc(-c2ccc(CN3CCCC3)cc2)cc1-c1nnnn1-c1cc(Cl)ccc1F` [I-A-595], the Ki fell in the range of 0.1 to 1 µM. Next, `Nc1ncc(-c2ccc(CN3CCCC3)cc2)cc1-c1nnnn1-c1cc(F)ccc1Cl` [I-A-596]: 0.1 to 1 µM.

`Nc1ncc(-c2ccc(CN3CCCC3)cc2)cc1-c1nnnn1-c1cc(Cl)cc(Cl)c1` [I-A-597] showed a Ki of 0.1 to 1 µM. In turn, `Cc1c(F)cccc1-n1nnnc1-c1cc(-c2ccc(CN3CCCC3)cc2)cnc1N` [I-A-598] returned a Ki of 0.1 to 1 µM. Next, `Cc1c(Cl)cccc1-n1nnnc1-c1cc(-c2ccc(CN3CCCC3)cc2)cnc1N` [I-A-599]: at most 0.1 µM; `Cc1ccc(Cl)cc1-n1nnnc1-c1cc(-c2ccc(CN3CCCC3)cc2)cnc1N` [I-A-600]: 0.1 to 1 µM. Next, `Nc1ncc(-c2ccc(CN3CCCC3)cc2)cc1-c1nnnn1-c1cc(F)cc(F)c1Cl` [I-A-601]: at most 0.1 µM; `COc1ccc(F)cc1-n1nnnc1-c1cc(-c2ccc(CN3CCCC3)cc2)cnc1N` [I-A-602]: 0.1 to 1 µM. The figure for `Nc1ncc(-c2ccc(CN3CCCC3)cc2)cc1-c1nnnn1-c1cc(F)cc(F)c1` [I-A-603] is 0.1 to 1 µM.
